Test results taken from article PMC9936538, “Structure–Activity Relationship of N-Ethyl-Hexedrone Analogues: Role of the α-Carbon Side-Chain Length in the Mechanism of Action, Cytotoxicity, and Behavioral Effects in Mice” (ACS Chemical Neuroscience, 2023).
pIC50: −log10 of the molar value.

Tests used:
hDAT = target: T1, hDAT (Homo sapiens, UniProt Q01959); test: Monoamine uptake inhibition, [3H]MPP+ uptake at hDAT in transfected HEK293 cells; format: cell-based; conditions: for hDAT/hSERT inhibition ratio: 1/DAT IC50:1/SERT IC50, calculated with the original raw data
T1 construct: expressed in transfected cells; host or cells: HEK293
Experimental: Human embryonic kidney cells (HEK293) stably transfected with the human DAT and SERT were used for both the uptake inhibition and transporter binding assays.[6] Cells were cultured in DMEM supplemented with heat-inactivated 10% fetal bovine serum (FBS), […], and 100 U/mL penicillin at 37 °C in a 5% CO2 humidified atmosphere. Geneticin (G418; 50 μg/mL) was added to maintain the selection process. Upon approximately 80% confluence, cells were washed with 5 mL of phosphate-buffered saline (PBS) and 1 mL of trypsin/EDTA was added. After 3 min, 9 mL of DMEM was added to stop cell trypsinization. If necessary, centrifugation was performed to pellet the cells. Cells were then resuspended, counted, and seeded onto poly-D-lysine coated (24 h/prior to the experiment) 96-well plates at a density of 0.36 million cells per well for the uptake inhibition assays.
Assays were performed as previously described.[8] On the test day, the medium was removed from the cell culture 96-well plates and immediately replaced with 200 μL of Krebs-HEPES-buffer (KHB; 10 mM HEPES, 120 mM NaCl, 3 mM KCl, 2 mM CaCl2·2H2O, 2 mM MgCl2·6H2O supplemented with 20 mM D-glucose; pH 7.3). To ensure equilibrated conditions, cells were incubated with different concentrations of the drugs in KHB at a final volume of 50 μL/well for 5 min (preincubation). The preincubation solution was removed, and cells were incubated with the tritiated compounds, 0.02 μM [^3H]MPP^+ for hDAT and 0.1 μM [^3H]5-HT for hSERT, together with various concentrations of the test drugs in KHB. The uptake incubation times were 3 min for hDAT and 1 min for hSERT. The reaction was stopped by rapid removal of the incubation solution and washout with ice-cold KHB. Cells were lysed with 1% sodium dodecyl sulfate, and lysates were subsequently transferred to vials containing scintillation fluid. Radioactivity was quantified with a beta-scintillation counter (PerkinElmer, Waltham, MA, USA). The uptake in the absence of the test drugs was normalized to 100%, and the uptake in the presence of various concentrations of cathinones was expressed as a percentage thereof. […] Four independent experiments carried out on triplicates were performed.
For in vitro assays, data were normalized with 100% defined as the mean of the technical replicates in the control group and expressed as mean ± SEM. Nonlinear regression was used to fit the different competition curves. Data were plotted and best fitted to a sigmoidal dose–response curve from which an IC50 or LC50 value was obtained. Transporter ratios were calculated as (1/DAT IC50: 1/SERT IC50). […] The Cheng–Prusoff equation was used to calculate Ki (affinity): Ki = EC50/(1 + [radioligand concentration/Kd]).[65] The sample size for behavioral experiments was determined using GPower software. One-way or two-way ANOVA, and subsequent Tukey’s posthoc test, conducted only if F was significant, was used to determine the effects of cathinones on cytotoxicity, HLA, OF, and CPP experiments. The α error probability was set at 0.05 (p < 0.05). The exact size group for the behavioral experiments is shown in the corresponding figure legends. All statistic calculations were carried out using GraphPad Prism (GraphPad software, San Diego, CA, USA).

[1] = system: NGF-differentiated PC12 cells; test: Cytotoxicity in NGF-differentiated PC12 cells, WST-8 cell viability assay; format: cell-based; conditions: WST-8, 0.01–8.00 mM, 24 h
Experimental: Pheochromocytoma cells (PC12) cells were cultured in collagen-coated dishes in DMEM supplemented with heat-inactivated 5% FBS, 10% horse serum, 10 mM HEPES, 2 mM glutamine, 25 UI/mL penicillin, and 25 μg/mL streptomycin (maintenance medium) and grown at 37 °C in a humidified 5% CO2 atmosphere. Cell differentiation was performed as described[54] with minor modifications. In brief, cells were seeded (250.000 cells/well) onto 96-well plates in the maintenance medium, and after 24 h, the medium was changed to a differentiation medium containing 50 ng/mL NGF. After 24 h, neurite outgrowth was already apparent.
Treatments with different concentrations of the drug in DMEM were performed 48 h after cell differentiation. 10 μL of the tested drug was added per well, in triplicate, and cells were incubated for 24 h at 37 °C in a humidified 5% CO2 atmosphere. Thereafter, the medium was removed and immediately replaced with a maintenance medium. 10 μL of the CCK-8 Cell Counting Kit, based on 2-(2-methoxy-4-nitrophenyl)-3-(4-nitrophenyl)-5-(2,4-disulfophenyl)-2H-tetrazolium, monosodium salt (WST-8), was added per well and was incubated for 2 h at 37 °C in a humidified 5% CO2 atmosphere. This method has been defined as a good alternative to the 3-(4,5-dimethylthiazol-2-yl)-2,5-diphenyltetrazoliumbromide (MTT) assay.[63] Optical density was measured at 450 nm, using a microplate reader.
For in vitro assays, data were normalized with 100% defined as the mean of the technical replicates in the control group and expressed as mean ± SEM. Nonlinear regression was used to fit the different competition curves. Data were plotted and best fitted to a sigmoidal dose–response curve from which an IC50 or LC50 value was obtained. Transporter ratios were calculated as (1/DAT IC50: 1/SERT IC50). Although IC50 values at inhibiting 5-HT uptake for some compounds tested are expressed as >100 μM for clarity purposes, DAT/SERT ratios were calculated with the original raw data. The Cheng–Prusoff equation was used to calculate Ki (affinity): Ki = EC50/(1 + [radioligand concentration/Kd]).[65] The sample size for behavioral experiments was determined using GPower software. One-way or two-way ANOVA, and subsequent Tukey’s posthoc test, conducted only if F was significant, was used to determine the effects of cathinones on cytotoxicity, HLA, OF, and CPP experiments. The α error probability was set at 0.05 (p < 0.05). The exact size group for the behavioral experiments is shown in the corresponding figure legends. All statistic calculations were carried out using GraphPad Prism (GraphPad software, San Diego, CA, USA).

Swiss CD-1 mice [2] = test: Open-field (OF) test, center versus periphery (anxiety-like behavior); format: in vivo; conditions: 10 mg/kg i.p.
Experimental: Male Swiss CD-1 mice (Janvier, Le Genest, France) weighing 30–35 g (6–8 weeks old), housed in temperature-controlled conditions (22 ± 1 °C) under a 12 h light/dark cycle and with free access to food and drinking water (standard laboratory diet, Panlab SL, Barcelona, Spain), were randomly assigned to an experimental group. Efforts were made to minimize animal use and suffering.
The anxiety-like effects of the test compounds were assessed through an OF test as described.[64] Animals were placed individually in the center of an open-field arena (25 cm length × 25 cm width × 40 cm height), and the time spent, in seconds, in the center (8 × 8 cm) or the periphery of the arena was monitored for 60 min (Smart 3.0 Panlab, Barcelona, Spain).

Swiss CD-1 mice [3] = system: Swiss CD-1 mice; parameters: method as in PMID 32535718; conditions: 4 and 16 mg/kg subcutaneous injections; cited from earlier work
Swiss CD-1 mice [4] = system: Swiss CD-1 mice; parameters: method as in PMID 33155384; conditions: 10 and 25 mg/kg injections; cited from earlier work

T1 sequence (Q01959 whole entry): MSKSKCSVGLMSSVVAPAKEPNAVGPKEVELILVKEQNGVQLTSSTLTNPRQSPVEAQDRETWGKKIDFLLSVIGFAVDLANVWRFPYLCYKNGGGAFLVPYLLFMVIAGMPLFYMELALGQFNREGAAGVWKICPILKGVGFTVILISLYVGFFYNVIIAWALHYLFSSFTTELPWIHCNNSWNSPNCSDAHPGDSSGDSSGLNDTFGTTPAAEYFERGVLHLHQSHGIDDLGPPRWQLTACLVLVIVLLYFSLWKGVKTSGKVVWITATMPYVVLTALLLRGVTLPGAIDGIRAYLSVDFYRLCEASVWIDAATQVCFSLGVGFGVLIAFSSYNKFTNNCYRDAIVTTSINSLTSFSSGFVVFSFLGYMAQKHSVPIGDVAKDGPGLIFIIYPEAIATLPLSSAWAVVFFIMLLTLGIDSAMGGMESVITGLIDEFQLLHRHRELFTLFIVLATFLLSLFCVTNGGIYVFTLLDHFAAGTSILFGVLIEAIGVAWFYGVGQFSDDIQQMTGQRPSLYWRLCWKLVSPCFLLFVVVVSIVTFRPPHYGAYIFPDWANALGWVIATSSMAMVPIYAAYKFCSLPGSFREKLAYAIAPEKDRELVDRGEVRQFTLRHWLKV

CCCCCC(NCC)C(=O)c1ccccc1 (stereo not shown) [NEHP, N-ethyl-heptedrone]
pIC50 (hDAT): 6.60
hDAT/hSERT inhibition ratio (hDAT): 426
concentration at which cytotoxicity starts [1]: 100 µM

CCNC(C)C(=O)c1ccccc1 (stereo not shown) [NEC, N-ethyl-cathinone]
pIC50 (hDAT): 5.84
hDAT/hSERT inhibition ratio (hDAT): 157
reduction of potency inhibiting DA uptake compared with α-PVP (hDAT; vs α-PVP): ~10 fold

CCCC(NCC)C(=O)c1ccccc1 (stereo not shown) [NEPD, N-ethyl-pentedrone]
pIC50 (hDAT): 7.04
hDAT/hSERT inhibition ratio (hDAT): 844

CCCCC(NCC)C(=O)c1ccccc1 (stereo not shown) [NEH, N-ethyl-hexedrone]
anxiogenic effect in OF test (Swiss CD-1 mice [2]): acute anxiogenic effects
CPP (Swiss CD-1 mice [3]): significant CPP
pIC50 (hDAT): 7.14
hDAT/hSERT inhibition ratio (hDAT): 1457
potency in inhibiting DA uptake compared with NEC (hDAT; vs NEC): ~20 fold
locomotor activity (Swiss CD-1 mice [4]): increase in locomotor activity

CCNC(CC)C(=O)c1ccccc1 (stereo not shown) [NEB, N-ethyl-buphedrone]
pIC50 (hDAT): 6.52
hDAT/hSERT inhibition ratio (hDAT): 168
